Here are results for three compounds from EP1280528B1, “R-ELIPRODIL FOR TREATING GLAUCOMA” (Alcon, Inc, priority 2000, dated 2001).

Series [1] relates to piglet Purkinje fibers from the heart. Nature of the series: action potential duration in piglet Purkinje fibers. The conditions noted are these: for maximum effect on APD90: comparison between compounds; for concentration with statistically significant prolongation of APD90: action potential duration at 90% repolarization. The procedure: (§1) Eliprodil and its enantiomers were evaluated for their potential for prolonging QTc by determining their dose-related effects on cardiac electrical activity. Two different experimental models were utilized for these studies: (1) Action potential duration in piglet Purkinje fibers from the heart and (2) Electrocardiographic parameters in pentobarbital anesthetized cats.

A further series has as its system humans. The conditions noted are these: following some doses in humans; cited from earlier work.
The subject of another series is sigma receptors. The conditions noted are these: rat brain; U.S. Patent No. 5,023,266; cited from earlier work.
The target of another series is 5-HT uptake (Homo sapiens, UniProt P31645). Kind of series: binding studies, 5-HT uptake. The source says:
(§2) The role of these pharmacological activities in the neuroprotective efficacy has not been established for this drug.

The conditions of series [2]: U.S. Patent No. 5,547,963; cited from earlier work.
The next series relates to hippocampal slices. Nature of the series: recovery of synaptic transmission after hypoxia in hippocampal slices. It is filed as cell-based. The conditions noted are these: for efficacy for recovery of excitatory post synaptic potentials following hypoxia: at a comparable dose. The procedure: Dose-response relations comparing the efficacy of Racemic (R/S)-eliprodil (open circles), R-eliprodil (closed circles) and memantine (closed diamonds) for their ability to improve recovery of synaptic transmission following a 15 minute period of hypoxia in hippocampal slices in vitro (Figure 2).
Preparation of the hypoxic hippocampal slice preparation has been reported by Reyes et al., "Eliprodil, a non-competitive, NR2B-selective NMDA antagonist, protects pyramidal neurons in hippocampal slices from hypoxic/ischemic damage", Brain Research, Vol. 782, pp. 212-218, 1998. Briefly, hippocampal slices were prepared acutely the same day as the experiment, and each compound was bath applied 30 minutes prior to delivery of the 15 minute hypoxic insult. Recovery of evoked epsps is expressed as percent of the initial, pre-hypoxia epsp maximum slope, with this percent recovery assessed 60 minutes after reoxygenation. Each point is the mean ± S.E.M. of 8 slices at each dose, and EC50's were calculated from a single-active site Lineweaver-Burke linear fit.

A further series has as its target 5-HT2A (Homo sapiens, UniProt P28223). Nature of the series: binding studies, 5-HT2A.
Description: as §2

Another series has as its target histamine H1 (Homo sapiens, UniProt P35367). Nature of the series: binding studies, histamine H1.
Description: as §2

The target of the next series is histamine H2 (Homo sapiens, UniProt P25021). Nature of the series: binding studies, histamine H2.
Description: as §2

Series [3] deals with lateral vestibular nucleus. Nature of the series: NMDA-induced firing rate of the lateral vestibular nucleus in vivo.
The subject of the next series is α1-adrenergic. Nature of the series: binding studies, α1-adrenergic.
Description: as §2

Another series deals with T1, 5-HT1A (Homo sapiens, UniProt P08908).
T1 sequence (P08908 1-422): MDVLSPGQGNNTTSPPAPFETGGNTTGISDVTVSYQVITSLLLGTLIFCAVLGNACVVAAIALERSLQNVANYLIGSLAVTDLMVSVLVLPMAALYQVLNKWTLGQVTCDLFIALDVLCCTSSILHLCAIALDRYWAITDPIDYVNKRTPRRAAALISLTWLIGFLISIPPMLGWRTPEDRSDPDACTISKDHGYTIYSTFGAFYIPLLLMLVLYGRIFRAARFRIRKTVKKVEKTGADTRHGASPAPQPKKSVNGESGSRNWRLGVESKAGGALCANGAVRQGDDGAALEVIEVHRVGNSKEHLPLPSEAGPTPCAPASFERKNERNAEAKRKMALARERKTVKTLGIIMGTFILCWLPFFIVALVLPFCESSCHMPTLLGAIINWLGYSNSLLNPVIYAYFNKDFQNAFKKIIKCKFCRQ
Kind of series: binding studies, 5-HT1A.
Description: as §2

Series [4] deals with pentobarbital-anesthetized cats. Nature of the series: hemodynamic and electrocardiographic parameters in anesthetized cats. The conditions noted are these: increasing doses 0.01 to 3 mg/kg, five-minute intravenous infusion every 20 minutes. How it is done: as §1
Eliprodil and its two enantiomers were also evaluated for hemodynamic and electrocardiographic parameters in pentobarbital-anesthetized cats. […] Compounds were administered at increasing doses from 0.01 to 3 mg/kg as a five-minute intravenous infusion every 20 minutes. […]

Series [5] concerns rat retinal ganglion cells. Kind of series: glutamate-induced rat retinal ganglion cell death. It is filed as cell-based. The conditions noted are these: 10nM for 30 minutes, then 100µM glutamate, viable cells counted after 3 days; Figure 1. The source says:
Retinal ganglion cells were selected as they represent the retinal cell that degenerates in glaucoma. MK-801 was selected as a reference NMDA antagonist.
Isolation of rat retinal ganglion cells and assessment of viability in the absence and presence of glutamate was described in Pang, et al., "Protection by Eliprodil Against Excitotoxicity in Cultured Rat Retinal Ganglion Cells", Investigative Ophthalmology & Visual Science, Vol. 40(6), pp. 1170-1176, May, 1999. Briefly, isolated cultured rat retinal ganglion cells were treated with racemic (R/S) eliprodil (10nM), R-eliprodil (10nM), or S-eliprodil (10nM) for thirty (30) minutes followed by the addition of 100µM glutamate. Survival was determined by counting viable cells after an incubation period of three (3) days. Survival with vehicle alone defines 100%. […] S-eliprodil was ineffective.

In another series the target is 5-HT7 (Homo sapiens, UniProt P34969). Nature of the series: binding studies, 5-HT7.
Description: as §2

For a further series, the target named is β3-adrenergic (Homo sapiens, UniProt P13945). Nature of the series: binding studies, β3-adrenergic.
Description: as §2

A further series deals with NMDA receptor (Homo sapiens, UniProt Q05586+Q13224). Nature of the series: electrophysiology and ligand displacement studies at the NMDA receptor. It is filed as binding.
The nature of series [6]: plasma level in the anesthetized cat protocol. It is filed as in vivo. The conditions noted are these: 0.1 mg/kg dose, intravenous infusion.

“Also recorded” adds a separate entry of the source. A value given as a limit tells only on which side of the number the result lay.

Chain of NMDA receptor (Q13224 27-1484, other chains not shown): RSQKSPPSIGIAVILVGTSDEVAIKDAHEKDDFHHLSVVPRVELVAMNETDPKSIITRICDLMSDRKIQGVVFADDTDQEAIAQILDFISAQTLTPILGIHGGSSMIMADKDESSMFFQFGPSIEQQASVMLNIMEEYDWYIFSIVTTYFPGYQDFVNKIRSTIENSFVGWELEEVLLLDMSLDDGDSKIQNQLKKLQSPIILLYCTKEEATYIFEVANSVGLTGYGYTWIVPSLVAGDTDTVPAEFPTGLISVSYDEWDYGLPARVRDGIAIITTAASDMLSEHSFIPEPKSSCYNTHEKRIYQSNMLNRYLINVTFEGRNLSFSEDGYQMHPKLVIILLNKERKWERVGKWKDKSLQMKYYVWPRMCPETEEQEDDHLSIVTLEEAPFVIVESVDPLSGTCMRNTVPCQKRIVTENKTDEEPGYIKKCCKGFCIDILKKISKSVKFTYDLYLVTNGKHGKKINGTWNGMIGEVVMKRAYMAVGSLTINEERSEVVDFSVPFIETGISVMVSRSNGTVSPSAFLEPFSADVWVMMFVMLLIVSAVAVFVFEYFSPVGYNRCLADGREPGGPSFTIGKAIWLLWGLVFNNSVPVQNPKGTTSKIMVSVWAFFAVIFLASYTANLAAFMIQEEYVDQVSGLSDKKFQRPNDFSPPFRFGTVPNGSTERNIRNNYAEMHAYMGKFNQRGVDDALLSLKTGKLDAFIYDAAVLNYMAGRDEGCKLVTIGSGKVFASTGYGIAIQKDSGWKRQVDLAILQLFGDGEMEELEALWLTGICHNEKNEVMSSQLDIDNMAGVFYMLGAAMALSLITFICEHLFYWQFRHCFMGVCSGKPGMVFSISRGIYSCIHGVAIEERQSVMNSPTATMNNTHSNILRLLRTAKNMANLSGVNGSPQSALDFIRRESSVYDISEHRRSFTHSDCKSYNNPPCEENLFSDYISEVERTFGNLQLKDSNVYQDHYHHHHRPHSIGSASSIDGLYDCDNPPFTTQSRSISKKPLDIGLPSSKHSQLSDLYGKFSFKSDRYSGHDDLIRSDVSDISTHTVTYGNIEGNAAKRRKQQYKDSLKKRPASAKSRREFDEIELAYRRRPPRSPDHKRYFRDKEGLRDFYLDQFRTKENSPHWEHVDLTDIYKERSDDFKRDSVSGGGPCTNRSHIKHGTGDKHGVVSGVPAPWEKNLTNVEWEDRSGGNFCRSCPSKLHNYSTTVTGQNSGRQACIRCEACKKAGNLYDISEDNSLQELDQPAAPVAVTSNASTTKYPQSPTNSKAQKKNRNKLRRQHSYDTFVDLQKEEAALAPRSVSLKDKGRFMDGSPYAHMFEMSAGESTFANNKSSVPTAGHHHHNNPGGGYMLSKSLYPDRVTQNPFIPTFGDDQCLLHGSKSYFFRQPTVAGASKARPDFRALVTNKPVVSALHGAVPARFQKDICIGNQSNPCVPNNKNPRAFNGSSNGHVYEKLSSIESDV
Chain of β3-adrenergic (P13945 whole entry): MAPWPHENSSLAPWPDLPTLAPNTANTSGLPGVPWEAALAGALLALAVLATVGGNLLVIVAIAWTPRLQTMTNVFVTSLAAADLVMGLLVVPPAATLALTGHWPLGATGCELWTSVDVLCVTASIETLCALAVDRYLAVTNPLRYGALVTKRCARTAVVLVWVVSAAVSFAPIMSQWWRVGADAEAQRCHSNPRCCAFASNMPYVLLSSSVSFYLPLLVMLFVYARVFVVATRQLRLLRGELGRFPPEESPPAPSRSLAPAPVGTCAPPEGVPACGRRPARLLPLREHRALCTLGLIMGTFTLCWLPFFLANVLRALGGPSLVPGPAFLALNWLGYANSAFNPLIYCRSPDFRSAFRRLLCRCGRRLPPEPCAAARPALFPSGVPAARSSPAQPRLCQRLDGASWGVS
Chain of histamine H1 (P35367 whole entry): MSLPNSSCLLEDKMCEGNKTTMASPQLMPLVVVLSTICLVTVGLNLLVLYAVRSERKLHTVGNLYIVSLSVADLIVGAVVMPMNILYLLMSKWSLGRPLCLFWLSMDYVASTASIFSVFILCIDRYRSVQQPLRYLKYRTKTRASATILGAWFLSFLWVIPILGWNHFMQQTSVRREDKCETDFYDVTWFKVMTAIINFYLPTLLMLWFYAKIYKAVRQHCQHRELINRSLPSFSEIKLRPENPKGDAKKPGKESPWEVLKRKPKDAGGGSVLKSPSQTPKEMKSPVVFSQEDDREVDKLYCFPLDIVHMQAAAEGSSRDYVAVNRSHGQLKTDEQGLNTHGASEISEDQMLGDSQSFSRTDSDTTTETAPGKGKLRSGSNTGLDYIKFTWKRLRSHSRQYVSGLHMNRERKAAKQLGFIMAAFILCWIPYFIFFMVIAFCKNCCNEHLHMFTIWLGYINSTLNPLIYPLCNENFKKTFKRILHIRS
Chain of 5-HT2A (P28223 whole entry): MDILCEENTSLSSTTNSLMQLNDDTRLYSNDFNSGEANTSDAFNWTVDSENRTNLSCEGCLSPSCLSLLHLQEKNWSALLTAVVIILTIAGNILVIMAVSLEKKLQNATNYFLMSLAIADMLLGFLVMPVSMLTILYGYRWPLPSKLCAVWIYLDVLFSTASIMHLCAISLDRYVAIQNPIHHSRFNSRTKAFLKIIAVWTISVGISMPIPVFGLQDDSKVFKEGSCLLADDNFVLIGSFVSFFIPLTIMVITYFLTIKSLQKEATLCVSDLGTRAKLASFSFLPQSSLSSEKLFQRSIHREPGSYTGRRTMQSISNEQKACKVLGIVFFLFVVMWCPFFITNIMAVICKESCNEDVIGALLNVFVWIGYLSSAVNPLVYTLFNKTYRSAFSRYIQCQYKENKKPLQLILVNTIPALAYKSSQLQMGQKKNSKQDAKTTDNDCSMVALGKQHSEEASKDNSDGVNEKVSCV
Chain of 5-HT7 (P34969 whole entry, species assumed): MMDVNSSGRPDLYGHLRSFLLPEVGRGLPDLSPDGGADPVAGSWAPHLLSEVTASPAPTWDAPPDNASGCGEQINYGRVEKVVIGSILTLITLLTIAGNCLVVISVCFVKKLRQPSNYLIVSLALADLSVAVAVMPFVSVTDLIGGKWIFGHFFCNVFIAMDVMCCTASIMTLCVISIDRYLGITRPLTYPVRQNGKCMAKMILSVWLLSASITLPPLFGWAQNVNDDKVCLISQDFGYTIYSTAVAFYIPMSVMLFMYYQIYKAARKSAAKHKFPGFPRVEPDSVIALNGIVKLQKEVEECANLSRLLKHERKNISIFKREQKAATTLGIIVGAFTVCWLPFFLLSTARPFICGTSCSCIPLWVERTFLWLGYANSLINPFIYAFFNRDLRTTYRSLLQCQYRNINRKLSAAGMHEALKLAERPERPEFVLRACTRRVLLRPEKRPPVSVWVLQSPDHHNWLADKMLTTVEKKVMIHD
Chain of histamine H2 (P25021 whole entry): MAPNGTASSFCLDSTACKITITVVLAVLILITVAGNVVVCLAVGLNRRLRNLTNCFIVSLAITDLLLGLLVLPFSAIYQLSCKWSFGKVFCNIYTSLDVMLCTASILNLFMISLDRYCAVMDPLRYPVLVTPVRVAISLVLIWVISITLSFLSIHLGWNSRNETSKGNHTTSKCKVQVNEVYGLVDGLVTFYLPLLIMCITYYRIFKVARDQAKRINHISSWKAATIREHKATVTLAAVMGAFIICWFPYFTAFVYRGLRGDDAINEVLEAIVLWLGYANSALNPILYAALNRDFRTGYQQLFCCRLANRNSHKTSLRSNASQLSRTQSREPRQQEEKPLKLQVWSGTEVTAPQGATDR
Chain of 5-HT uptake (P31645 whole entry): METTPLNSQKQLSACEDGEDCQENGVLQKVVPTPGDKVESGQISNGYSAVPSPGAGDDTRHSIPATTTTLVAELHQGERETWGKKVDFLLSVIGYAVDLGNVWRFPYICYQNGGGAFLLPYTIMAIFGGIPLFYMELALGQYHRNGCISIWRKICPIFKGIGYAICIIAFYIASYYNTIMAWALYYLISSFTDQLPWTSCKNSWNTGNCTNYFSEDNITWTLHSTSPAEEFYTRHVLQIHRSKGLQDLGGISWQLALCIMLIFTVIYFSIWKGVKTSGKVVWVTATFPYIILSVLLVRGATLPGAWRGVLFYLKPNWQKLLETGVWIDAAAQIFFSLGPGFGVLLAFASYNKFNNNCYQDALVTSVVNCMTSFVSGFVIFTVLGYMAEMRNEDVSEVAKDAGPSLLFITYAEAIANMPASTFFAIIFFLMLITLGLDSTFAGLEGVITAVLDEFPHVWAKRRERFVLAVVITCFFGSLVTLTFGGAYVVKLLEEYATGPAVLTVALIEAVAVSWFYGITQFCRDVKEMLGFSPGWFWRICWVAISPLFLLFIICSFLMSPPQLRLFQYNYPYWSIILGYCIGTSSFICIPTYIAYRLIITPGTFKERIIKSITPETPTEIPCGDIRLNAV

Turning to `OC(CN1CCC(Cc2ccc(F)cc2)CC1)c1ccc(Cl)cc1` (racemic) [Eliprodil], the “maximum effect on APD90” value in series [1] was “equal to that of S(+) eliprodil”. Besides, the QTc prolongation entry in the series on humans is given as “asymptomatic QTc prolongation”. For the same compound, in the series on sigma receptors, the “binding to sigma receptors” value is recorded as “potently bind”. The affinity result at 5-HT uptake, on 5-HT2A, on histamine H1, on histamine H2, in the series with α1-adrenergic and on 5-HT1A was “sub-micromolar” throughout. The affinity result at 5-HT7 and on β3-adrenergic was “sub-micromolar” throughout. For the same compound, in series [2], the neurotrophic effects entry is listed as “Equipotency”. Further, the “efficacy for recovery of excitatory post synaptic potentials following hypoxia” value (“efficacy for recovery” for short) with hippocampal slices is listed as “less effective”. Also, the “inhibition of NMDA-induced firing rate” value in series [3] is given as “strongly inhibit”. The “Threshold Dose, Heart Rate Decrease” value in series [4] stood at 0.1 mg/kg. The “Threshold Dose, Mean Blood Pressure Decrease” value in series [4] came to 1.0 mg/kg. Further, the “Threshold Dose, QTc Prolongation” value in [4] worked out at 0.03 mg/kg. For the same compound, in series [5], the “neuroprotective effect (survival of retinal ganglion cells)” value (“neuroprotective effect” below) is “marked neuroprotective activity”.
What is called Ki is a dissociation constant, usually derived from enzyme kinetics or from competition with a known ligand. A lower Ki goes with higher affinity. For `O[C@H](CN1CCC(Cc2ccc(F)cc2)CC1)c1ccc(Cl)cc1` [S-eliprodil], the “concentration with statistically significant prolongation of APD90” value in series [1] is on record as at least 30 nM. In addition, in series [2], the neurotrophic effects entry is recorded as “Equipotency”. Further, in the series with hippocampal slices, the “efficacy for recovery” value is given as “less effective”. For the same compound, the “inhibition of NMDA-induced firing rate” value in [3] is “almost inactive at the highest dose tested”. Besides, in [4], the “Threshold Dose, Heart Rate Decrease” value stood at 0.1 mg/kg; the “Threshold Dose, Mean Blood Pressure Decrease” value was found to be 1.0 mg/kg; the “Threshold Dose, QTc Prolongation” value is listed as 0.01 mg/kg. Also, the “neuroprotective effect” value in [5] was “ineffective”. Moreover, the Ki on NMDA receptor was 10 µM.
Take `O[C@@H](CN1CCC(Cc2ccc(F)cc2)CC1)c1ccc(Cl)cc1` [R-eliprodil, R-α-(4-chlorophenyl)-4-(4-fluorophenylmethyl)-1-peperidineethanol]: in series [1], the “concentration with statistically significant prolongation of APD90” value is recorded as at least 100 nM and the “maximum effect on APD90” value is on record as “less than that seen with S(+) eliprodil”. Moreover, in [2], the neurotrophic effects result is listed as “Equipotency”. In addition, in the series with hippocampal slices, the “efficacy for recovery” value was “substantial recovery; also recorded: more efficacious than either racemic or S-eliprodil”. The “potency for recovery of evoked epsps (EC50 comparison)” value in the series on hippocampal slices (bath applied 30 minutes before 15 minute hypoxia, recovery 60 minutes after reoxygenation, p<0.05, Figure 2) is recorded as “statistically significantly more potent”. Further, the plasma level in series [6] was determined as 34.9 ± 2.8 ng/mL. Further, the “inhibition of NMDA-induced firing rate” value in series [3] is listed as “strongly inhibit”. In series [4], the “Threshold Dose, Heart Rate Decrease” value is recorded as 0.3 mg/kg; the “Threshold Dose, Mean Blood Pressure Decrease” value stood at 1.0 mg/kg; the “Threshold Dose, QTc Prolongation” value came out at 0.1 mg/kg. In addition, the “neuroprotective effect” value in series [5] is reported as “marked neuroprotective activity; also recorded: as efficacious as a protectant as racemic eliprodil”. This compound also yielded an inhibition constant Ki at NMDA receptor of 0.2 µM.
